Assay results taken from patent US10046050B2, “Targeting immunotherapy for amyloidosis” (UNIVERSITY OF TENNESSEE RESEARCH FOUNDATION, priority 2014, dated 2018).

How the values were obtained:
Aβ(1-40) fibrils = biological target: T1, Aβ(1-40) fibrils (Homo sapiens, UniProt P05067); assay: EuLISA of murine 11-1F4 on synthetic amyloid fibrils with or without p66; format: binding; settings: p66 added to fibril-coated wells
T1 construct: synthetic amyloid fibrils composed of rVλ6Wil (AL fibrils) or Aβ(1-40); host or cells: synthetic peptide fibrils
T1 sequence (P05067 672-711 limits assumed): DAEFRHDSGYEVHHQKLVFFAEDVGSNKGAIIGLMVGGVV
Procedure: (§1) To assess the interaction of 11-1F4 with synthetic amyloid fibrils, we evaluated the interaction of murine 11-1F4 with synthetic amyloid fibrils composed of the λ6 light chain Wil-associated with light chain (AL) amyloidosis, or Aβ(1-40), associated with Alzheimer's disease and cerebral amyloid angiopathy. More particularly, Costar high binding plates were coated with 50 μl per well of […] of synthetic amyloid fibrils composed of rVλ6Wil (AL fibrils) or Aβ(1-40) overnight at 37° C. The plates were washed with 1× solution of phosphate buffered saline with 0.05% (v/v) tween 20 (PBST)—similar wash steps were performed between each step. As a “blocking step” the plates were incubated for 1 h at 37° C. with 200 μl of 1% (w/v) BSA in PBS per well. The murine 11-1F4 mAb was added from 100 nM (in BSAT), as a starting concentration, and diluted 1:2 across the microplate and incubation for 1 h at 37° C. Biotinylated goat anti-mouse secondary antibodies (Sigma) were used at a 1:3000 dilution in BSAT. Europium-conjugated streptavidin (Perkin Elmer) was added (1:1000 dilution of stock) as a detection medium and the plate incubated for 1 h 37° C. […] was quantified following addition of enhancement solution (Perkin Elmer) and the time-resolved fluorescence measured using a Victor 3 Wallac plate reader (Perkin Elmer).

[1] = system: synthetic amyloid fibrils composed of rVλ6Wil (AL fibrils); assay: as above; format: binding; settings: p66 added to fibril-coated wells
Procedure: as §1

AA amyloid = biological target: T2, AA amyloid (Mus musculus, UniProt P05367); assay: In vivo binding of ^125I-p66 in AA mice (microautoradiography, SPECT/CT, biodistribution)
T2 construct: from tissue; host or cells: organs of living H2-L^d-huIL-6 Tg Balb/c mice after AEF injection
T2 sequence (P05367 20-94 limits assumed): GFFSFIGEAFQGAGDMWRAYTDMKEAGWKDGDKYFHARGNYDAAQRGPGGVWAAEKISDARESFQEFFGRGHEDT
Procedure: Systemic visceral AA amyloidosis was induced in H2-L^d-huIL-6 Tg Balb/c transgenic mice that constitutively express the human interleukin-6 transgene, by iv injection of 10 μg of purified, splenic AA amyloid (amyloid enhancing factor; AEF) in 100 μL of sterile phosphate-buffered saline (PBS). Peptide p66 was evaluated in mice at 4-6 wk post AEF injection when amyloid load was significant.
Imaging was performed using WT or AA amyloid mice (n=3) that were injected with ˜5 μg of ^125I-p66, 125 μCi in the lateral tail vein. After the appropriate uptake time (data for 4 and 72 h pi shown), mice were euthanized by isoflurane inhalation overdose. SPECT images were acquired using an Inveon trimodality imaging platform (Siemens Preclinical Solution, Knoxville, Tenn.) running Inveon Acquisition Workplace software (ver. 2.0). Low energy (^125I; 25-45 keV) gamma photons were acquired at each of 60, 16-sec projections with 90 mm of bed travel. […]
Samples of liver, spleen, pancreas, kidneys, small and large intestines, stomach and heart were harvested post mortem from every mouse undergoing imaging with ^125I-p66. A sample of each was placed into a tared, plastic vial, weighed and the ^125I radioactivity measured using an automated Wizard 3 gamma counter (1480 Wallac Gamma Counter, Perkin Elmer). The biodistribution data were expressed as % injected dose/g tissue (% ID/g). […]

human ATTR amyloid = assay: Immunohistochemistry of biotinyl-7D8 on formalin-fixed tissue sections; format: binding; settings: label = pre-treatment peptide, or 7D8 alone
Procedure: (§2) The binding of biotinylated 7D8 mAb with autopsy-derived, formalin-fixed, paraffin-embedded tissue sections containing, ATTR, ALκ or ALλ was assessed immunohistochemically. Consecutive tissue sections were stained with: Congo red; biotinylated 7D8 alone; 7D8 with the control peptide p5; or, 7D8 mAb with peptope p75 pretreatment. Briefly, six μm-thick tissue sections were subjected to antigen retrieval by incubation in CitraPlus solution (BioGenex, San Ramon, Calif.) for 30 min at 90° C. Unlabeled peptope p75 was added to the tissue at ˜3 μg/mL and incubated overnight at 4° C. Unbound reagent was removed by washing in PBST for 30 min. Tissues sections (with or without peptope pretreatment) were immunostained by addition of 3 μg/mL biotinylated 7D8 mAb. Slides were developed by addition of streptavidin-HRP (Vectastain Elite ABC kit, Vector Labs) followed by 3,3′-diaminobezidene (Vector Labs) and examined using a Leica DM500 microscope.

human Den ALλ amyloid = assay: as above; format: binding; settings: thyroid, label = pre-treatment peptide, or 7D8 alone
Procedure: as §2

human Tal ALκ amyloid = assay: as above; format: binding; settings: kidney, label = pre-treatment peptide, or 7D8 alone
Procedure: as §2

Substance | reactivity of the 11-1F4 mAb with fibrils when p66 was added (Aβ(1-40) fibrils) | reactivity of the 11-1F4 mAb with fibrils when p66 was added [1] | time post injection at which amyloid in the liver could be readily visualized by SPECT imaging (AA amyloid; AA mice, ^125I-p66) | binding of radiolabeled peptide to amyloid deposits in vivo (AA amyloid; mice with systemic AA amyloidosis, iv, autoradiography vs Congo red) | immunohistochemical staining with biotinyl-7D8 (human ATTR amyloid; Gre ATTR, esophagus) | immunohistochemical staining with biotinyl-7D8 (human ATTR amyloid; Gre ATTR, heart) | immunohistochemical staining with biotinyl-7D8 (human ATTR amyloid; Gre ATTR, nerve) | immunohistochemical staining with biotinyl-7D8 (human ATTR amyloid; Gre ATTR, small bowel) | immunohistochemical staining with biotinyl-7D8 (human ATTR amyloid; Ken ATTR, heart) | immunohistochemical staining with biotinyl-7D8 (human ATTR amyloid; Sno ATTR, heart) | immunohistochemical staining with biotinyl-7D8 (human Den ALλ amyloid) | immunohistochemical staining with biotinyl-7D8 (human Tal ALκ amyloid)
KAQKAQAKQAKQAQKAQKAQAKQAKQAQKAQKAQAKQAKQ SVTVVT KHYAAFPENLLI [p66] | enhanced | enhanced | at least 72 h | specifically bound the amyloid deposits | – | – | – | – | – | – | – | –
KAQKAQAKQAKQAQKAQKAQAKQAKQAQHEDT [p75, KAQKAQAKQAKQAQKAQKAQAKQAKQAQHEDT] | – | – | – | – | Specific positive staining | Specific positive staining | Specific positive staining | Specific positive staining | Specific positive staining | Specific positive staining | Specific positive staining | Specific positive staining
